Assay results taken from paper PMC6511888, “Synthesis, Biological Evaluation, and Molecular Modeling Studies of New Thiadiazole Derivatives as Potent P2X7 Receptor Inhibitors” (Frontiers in Chemistry, 2019).

Experiments:
P2X7R = target: T1, P2X7R (Mus musculus, UniProt Q9Z1M0); assay: Dye uptake assay (propidium iodide) in mouse peritoneal macrophages; type: cell-based; details: mean ± SD
T1 construct: plated for 24 h before dye uptake assays, whole-cell patch clamp experiments, and IL-1β release assays; endogenous in cells; host or cells: mouse (Swiss Webster) peritoneal macrophages
T1 sequence (Q9Z1M0 1-595): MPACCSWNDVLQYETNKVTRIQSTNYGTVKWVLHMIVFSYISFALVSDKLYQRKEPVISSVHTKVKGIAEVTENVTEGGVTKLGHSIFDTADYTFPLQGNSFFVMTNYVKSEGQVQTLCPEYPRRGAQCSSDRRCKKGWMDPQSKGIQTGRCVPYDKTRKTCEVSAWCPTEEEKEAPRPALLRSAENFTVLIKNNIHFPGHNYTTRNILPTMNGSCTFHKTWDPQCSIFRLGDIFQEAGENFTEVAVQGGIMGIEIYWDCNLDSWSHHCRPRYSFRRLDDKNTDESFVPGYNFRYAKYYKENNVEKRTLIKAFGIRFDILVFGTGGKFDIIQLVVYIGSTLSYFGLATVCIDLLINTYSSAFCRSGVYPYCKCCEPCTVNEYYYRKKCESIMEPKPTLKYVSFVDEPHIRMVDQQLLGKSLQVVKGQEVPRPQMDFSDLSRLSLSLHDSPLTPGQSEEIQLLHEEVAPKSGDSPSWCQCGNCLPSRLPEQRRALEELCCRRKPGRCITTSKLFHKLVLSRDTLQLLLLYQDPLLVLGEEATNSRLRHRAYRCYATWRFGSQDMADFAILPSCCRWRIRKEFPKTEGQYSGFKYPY
Protocol: Our protocols adhered to the Ethical Principles in Animal Experimentation adopted by the Brazilian College of Animal Experimentation and approved by the FIOCRUZ Research Ethics Committee (Faria et al., [2005]; number L039- 2016). Male mouse (Swiss Webster) peritoneal macrophages were collected from peritoneal cavity lavage and plated for 24 h before dye uptake assays, whole-cell patch clamp experiments, and IL-1β release assays.
(§1) HEK-293 cells transfected with hP2X7R and mouse peritoneal macrophages were plated at 2.5 × 10^6 or 5 × 10^5 cells/ml, respectively, in 96-well culture plates containing DMEM with 10% FBS and anti-biotics (50 U/ml penicillin and […] streptomycin) in a humidified 5% CO2 atmosphere at 37°C for 24 h (Faria et al., [2018]).
[…] In the last 5 min of ATP incubation, propidium iodide for macrophages (PI; 750 nM) or ethidium bromide (EB; 25 μM) for HEK-293 cells was added to all wells. PI dye was excited at a wavelength of 530 nm, and its fluorescence emission was read at a wavelength of 590 nm using an M5 plate reader (Molecular Devices). EB dye was excited at a wavelength of 530 nm and emitted at a wavelength of 620 nm.

[1] = LDH release assay (toxicity); type: cell-based, mouse; details: mouse peritoneal macrophages; 24 h; read-out: Macrophages IC50 (toxic effect)
Protocol: (§2) Mouse peritoneal macrophages (5 × 10^5 cells) and HEK-293 cells transfected with P2X7R (5 × 10^5 cells) were plated in a 96-well-plate for 24 h before the treatment. […] The supernatant collected in this assay was used to measure the presence of LDH in the media using a cytotoxicity detection kit (Sigma kit for LDH) according to the manufacturer's instructions (Faria et al., [2018]).

[2] = test system: mouse peritoneal macrophages; assay: LDH release assay (toxicity); type: cell-based; details: relative to maximum LDH release caused by 0.05% Triton X-100, mean ± SD
Protocol: as §2

human P2X7R = target: T2, human P2X7R (Homo sapiens, UniProt Q99572); assay: Dye uptake assay (ethidium bromide) in HEK-293 cells transfected with hP2X7R; type: cell-based; details: ethidium uptake assay; HEK-293 cells transfected with human P2X7R; mean ± SD
T2 construct: expressed in transfected cells; host or cells: HEK-293
T2 sequence (Q99572 1-595): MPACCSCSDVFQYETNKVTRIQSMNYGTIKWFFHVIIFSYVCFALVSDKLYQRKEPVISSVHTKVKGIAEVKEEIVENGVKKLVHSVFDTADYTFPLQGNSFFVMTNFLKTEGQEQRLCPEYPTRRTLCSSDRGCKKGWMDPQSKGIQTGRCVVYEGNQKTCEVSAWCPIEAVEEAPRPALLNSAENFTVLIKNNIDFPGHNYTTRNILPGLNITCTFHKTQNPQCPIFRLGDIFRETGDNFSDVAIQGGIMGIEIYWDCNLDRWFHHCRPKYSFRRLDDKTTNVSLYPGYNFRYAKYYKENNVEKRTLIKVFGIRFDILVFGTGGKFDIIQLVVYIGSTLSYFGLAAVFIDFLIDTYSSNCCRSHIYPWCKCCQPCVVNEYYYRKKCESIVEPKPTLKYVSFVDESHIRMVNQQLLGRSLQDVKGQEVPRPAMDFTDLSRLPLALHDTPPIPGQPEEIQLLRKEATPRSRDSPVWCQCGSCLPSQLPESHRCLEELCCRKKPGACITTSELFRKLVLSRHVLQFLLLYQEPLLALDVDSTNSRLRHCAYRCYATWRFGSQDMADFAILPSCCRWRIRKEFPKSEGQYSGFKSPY
Protocol: HEK-293 cells expressing human P2X7R were maintained in Dulbecco's modified Eagle's medium (DMEM; Sigma-Aldrich) supplemented with 10% fetal bovine serum (FBS; Prolab, Br) and anti-biotics (50 U/ml penicillin and […] streptomycin) in a humidified 5% CO2 atmosphere at 37°C (Faria et al., [2018]). A total of 5 × 10^5 cells were plated at 37°C in a humidified 5% CO2 atmosphere for 24 h in a 96-well plate for dye uptake or IL-1β release assays.
as §1
P2X7R antagonist and thiadiazole analogs (1 nM to 0.5 mM) were incubated for 5 min before ATP (5 mM) treatment for 20 min. In the last 5 min of ATP incubation, propidium iodide for macrophages (PI; 750 nM) or ethidium bromide (EB; 25 μM) for HEK-293 cells was added to all wells. PI dye was excited at a wavelength of 530 nm, and its fluorescence emission was read at a wavelength of 590 nm using an M5 plate reader (Molecular Devices). EB dye was excited at a wavelength of 530 nm and emitted at a wavelength of 620 nm.

[3] = test system: P2X7R-mediated IL-1β release; assay: ATP-induced IL-1β release (ELISA) in differentiated THP-1 cells; type: cell-based, human; details: ATP-induced IL-1β release; LPS/IFN-differentiated human THP-1 cells; read-out: THP-1 cells IC50
Protocol: P2X7R-mediated IL-1β release was obtained from differentiated THP-1 cells stimulated with lipopolysaccharide (LPS) before ATP addition. […] THP-1 cells were differentiated with 500 ng/ml phorbol 12-myristate 13-acetate (PMA) and 10 ng/ml IFN-γ cotreatment for 24 h. These cells were activated with 25 ng/ml LPS for 4 h. […] P2X7R antagonists (BBG and A740003) and thiadiazole analogs were added 30 min before the ATP stimulus. The supernatants were collected, centrifuged (1,000 rpm for 5 min at 4°C), and stored at −70°C after LPS incubation. IL-1β was quantified using a standard kit (ABCAM, Cambridge).

P2Y12R = target: T3, P2Y12R (Mus musculus, UniProt Q9CPV9); assay: 2MeSADP-activated [Ca2+]i shifts in mouse peritoneal macrophages; type: cell-based; details: 1 μM
T3 construct: endogenous in cells; host or cells: mouse peritoneal macrophages
T3 sequence (Q9CPV9 whole entry): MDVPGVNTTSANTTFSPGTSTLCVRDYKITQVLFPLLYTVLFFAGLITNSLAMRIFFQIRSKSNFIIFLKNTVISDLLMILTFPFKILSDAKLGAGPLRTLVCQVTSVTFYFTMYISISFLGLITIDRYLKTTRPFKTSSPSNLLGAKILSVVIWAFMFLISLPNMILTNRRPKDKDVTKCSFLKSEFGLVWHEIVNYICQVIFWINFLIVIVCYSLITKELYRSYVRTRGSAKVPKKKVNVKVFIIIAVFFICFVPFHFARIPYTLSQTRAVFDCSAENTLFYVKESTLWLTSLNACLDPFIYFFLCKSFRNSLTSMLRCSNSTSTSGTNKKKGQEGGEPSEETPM

P2Y4R = target: T4, P2Y4R (Mus musculus, UniProt Q9JJS7); assay: MRS4062-induced [Ca2+]i shifts in mice peritoneal macrophages; type: cell-based; details: 1 μM
T4 construct: endogenous in cells; host or cells: mouse peritoneal macrophages
T4 sequence (Q9JJS7 whole entry): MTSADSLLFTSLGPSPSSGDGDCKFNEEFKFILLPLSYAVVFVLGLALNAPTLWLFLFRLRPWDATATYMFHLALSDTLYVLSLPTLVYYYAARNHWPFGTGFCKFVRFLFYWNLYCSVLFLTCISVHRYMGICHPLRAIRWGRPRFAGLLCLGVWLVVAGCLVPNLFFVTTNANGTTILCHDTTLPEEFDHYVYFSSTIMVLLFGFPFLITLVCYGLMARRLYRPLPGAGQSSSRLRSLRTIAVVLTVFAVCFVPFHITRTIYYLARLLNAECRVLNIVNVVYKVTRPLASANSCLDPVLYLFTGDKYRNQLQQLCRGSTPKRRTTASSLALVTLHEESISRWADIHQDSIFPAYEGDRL
Protocol: (§3) Mouse peritoneal macrophages, PC12 cells, J774 cells, and HEPG2 cells were analyzed by fluorescence microscopy to measure the intracellular Ca^2+ concentrations ([Ca^2+]i). Cells were incubated with 2 μM Fura-2-AM (Molecular Probes) for 30 min, and the [Ca^2+]i mobilization was measured in the F340/F380 ratios with a FlexStation 3 multimode microplate reader (Molecular Devices). Cells were plated in translucent 96-well plates (BD Falcon) for 15 min and then washed and incubated in a saline solution with 150 NaCl, 5 KCl, 1 MgCl2, 1 CaCl2, and 10 HEPES (pH 7.4) for 30 min before measurements of [Ca^2+]i. The Ca^2+ influx was induced by stimulating cells with P2 receptor agonists. P2 receptor antagonists were added 10 min before P2 receptor agonist addition. […] Ionomycin was considered a positive control, and the other recordings were normalized in relation to the AUC.

P2Y13R = target: T5, P2Y13R (Homo sapiens, UniProt Q9BPV8); assay: ADPβS-induced [Ca2+]i shifts in HEP2G cells; type: cell-based; details: 1 μM
T5 construct: endogenous in cells; host or cells: HEP2G (HEPG2) cells
T5 sequence (Q9BPV8 1-354): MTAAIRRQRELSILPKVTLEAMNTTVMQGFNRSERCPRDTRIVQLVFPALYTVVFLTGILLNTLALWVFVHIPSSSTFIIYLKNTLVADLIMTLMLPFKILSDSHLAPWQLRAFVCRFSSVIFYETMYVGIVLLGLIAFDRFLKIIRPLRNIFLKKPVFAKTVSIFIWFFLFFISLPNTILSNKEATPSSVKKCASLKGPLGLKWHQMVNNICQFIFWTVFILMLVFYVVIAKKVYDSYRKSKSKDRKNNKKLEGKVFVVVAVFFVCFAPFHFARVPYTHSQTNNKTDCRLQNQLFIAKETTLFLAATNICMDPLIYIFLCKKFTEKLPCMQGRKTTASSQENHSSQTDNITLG
Protocol: as §3

P2Y11R = assay: NAADP-induced [Ca2+]i shifts in mouse peritoneal macrophages; type: cell-based; details: 1 μM
Protocol: as §3

[4] = percentage relative to the maximum uptake of propidium stimulated by 1 mM ATP only

inhibition at 10 µM (P2X7R; [4])	melting point	SMILES	% LDH release ([2]; 10 μM, cell type not given)	further results
		CCOc1ccc(Nc2ccc(/C(=C3C=C/C(=[N+](/CC)Cc4cccc(S(=O)(=O)[O-])c4)C=C/3C)c3ccc(N(CC)Cc4cccc(S(=O)(=O)O)c4)cc3C)cc2)cc1 [BBG, Brilliant Blue G, reference compound]		inhibition at 0.75 µM (P2X7R; BBG 750 nM, percentage relative to the maximum uptake of propidium stimulated by 1 mM ATP only): 78.8 ± 3.8%; IC50 (P2X7R; propidium uptake assay, mice peritoneal macrophages): 1200 ± 100 nM; IC50 at 24 h [1]: 87000 ± 1000 nM; % LDH release ([2]; BBG 750 nM): 13.2 ± 2.6%; IC50 (human P2X7R): 589 ± 12 nM; IC50 [3]: 1900 ± 300 nM
92 ± 0.4%	182 to 183 °C	CC1(O)CC(C(F)(F)F)=NN1c1nnc(-c2ccc(F)cc2)s1 (stereo not drawn) [Compound 13c]	45.3 ± 1.4%	
		CCCSc1nc(N[C@@H]2C[C@H]2c2ccc(F)c(F)c2)c2nnn([C@@H]3C[C@H](OCCO)[C@@H](O)[C@H]3O)c2n1 [Ticagrelor]		Effect on 2MeSADP-activated [Ca2+]i shifts (P2Y12R): inhibited
90.5 ± 1.4%	183 to 185 °C	CC1(O)CC(C(F)(F)F)=NN1c1nnc(-c2ccccc2)s1 (stereo not drawn) [Compound 13a]	8 ± 0.6%	
		S=C=Nc1cccc(NC(=S)NCCCCNC(=S)Nc2cccc(N=C=S)c2)c1 [MRS2578]		Effect on MRS4062-induced [Ca2+]i shifts (P2Y4R): inhibited
		Cc1nc(N=Nc2cc([N+](=O)[O-])ccc2Cl)c(COP(=O)(O)O)c(C=O)c1O [MRS2211]		Effect on ADPβS-induced [Ca2+]i shifts (P2Y13R): inhibited
92.5 ± 0.3%	170 to 171 °C	Cc1cc(C)n(-c2nnc(-c3ccccc3)s2)n1 [Compound 11a]	34.1 ± 2%	
89.7 ± 2.6%	163 to 165 °C	Cc1cc(C)n(-c2nnc(-c3ccccc3Cl)s2)n1 [Compound 11b]	45.7 ± 1.7%	
89.2 ± 2.2%	234 to 235 °C	N#Cc1cnn(-c2nnc(-c3ccccc3)s2)c1N [Compound 9a]	58.1 ± 4.8%	
90.2 ± 0.4%	165 to 167 °C	CCOC(=O)c1cnn(-c2nnc(-c3ccccc3)s2)c1N [Compound 9e]	36.3 ± 11.0%	
62.2 ± 4.02%	> 300 °C	N#Cc1cnn(-c2nnc(-c3ccc(Cl)cc3)s2)c1N [Compound 9d]	46.3 ± 5.12%	
90.7 ± 1.6%		CC1(O)CC(C(F)(F)F)=NN1c1nnc(-c2ccccc2Cl)s1 (stereo not drawn) [Compound 13b]	19.6 ± 0.6%	
71 ± 0.2%	184 to 185 °C	CC1(O)CC(C(F)(F)F)=NN1c1nnc(-c2ccc(Cl)cc2)s1 (stereo not drawn) [Compound 13d]	38.5 ± 6.2%	
54.7 ± 0.5%	147 to 148 °C	Cc1cc(C(F)(F)F)nn1-c1nnc(-c2ccc(Cl)cc2)s1 [Compound 14d]	43 ± 5%	
64 ± 3.7%	252 to 253 °C	CCOC(=O)c1cnn(-c2nnc(-c3ccc(Cl)cc3)s2)c1N [Compound 9h]	15 ± 1.9%	
		Cc1ccc(C(=O)Nc2cc(S(=O)(=O)O)cc3ccc(S(=O)(=O)O)cc23)cc1NC(=O)Nc1cc(C(=O)Nc2cc(S(=O)(=O)O)cc3ccc(S(=O)(=O)O)cc23)ccc1C [NF340]		Effect on NAADP-induced [Ca2+]i shifts (P2Y11R): inhibited
92 ± 2%	139 to 140 °C	Cc1cc(C(F)(F)F)nn1-c1nnc(-c2ccccc2Cl)s1 [Compound 14b]	26.6 ± 1.2%	
90.8 ± 1.1%	250 to 251 °C	CCOC(=O)c1cnn(-c2nnc(-c3ccc(F)cc3)s2)c1N [Compound 9g]	22.6 ± 0.3%	
69.8 ± 0.7%	202 to 203 °C	Cc1cc(C)n(-c2nnc(-c3ccc(Cl)cc3)s2)n1 [Compound 11d]	36.94 ± 10.6%	
92.5 ± 0.4%	149 to 150 °C	Cc1cc(C(F)(F)F)nn1-c1nnc(-c2ccc(F)cc2)s1 [Compound 14c]	10.6 ± 0.5%	
91 ± 1%	163 to 164 °C	Cc1cc(C(F)(F)F)nn1-c1nnc(-c2ccccc2)s1 [Compound 14a]	32 ± 1%	
